Reference: the supplement of paper PMC10307832

Key:
Assay in all cases: relative viability (nuclei count vs DMSO), 5 days (fraction); higher = more cells survive
HCC-78 = system: HCC-78
In short: (§1)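 Medians of duplicate plates are given as relative viability. That measure is the nuclei count in treated wells divided by the count in vehicle wells. Counts were taken on 4× images of lung cancer cell lines in 1536-well plates, 5 days after pin-tool dosing the day after seeding with one drug alone or a fixed anchor-drug dose plus five library-drug doses (not always all listed) in √10 steps.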

NCI-H2228 = system: NCI-H2228
In short: as §1

NCI-H460 = system: NCI-H460
In short: as §1

NCI-H358 = system: NCI-H358
In short: as §1

RERF-LC-KJ = system: RERF-LC-KJ
In short: as §1

NCI-H2347 = system: NCI-H2347
In short: as §1

NCI-H1734 = system: NCI-H1734
In short: as §1

PC-3 [JPC-3] = system: PC-3 [JPC-3]
In short: as §1

LXF-289 = system: LXF-289
In short: as §1

HOP-62 = system: HOP-62
In short: as §1

NCI-H647 = system: NCI-H647
In short: as §1

A-427 = system: A-427
In short: as §1

SW 1573 = system: SW 1573
In short: as §1

LOU-NH91 = system: LOU-NH91
In short: as §1

LC-2-ad = system: LC-2-ad
In short: as §1

NCI-H1975 = system: NCI-H1975
In short: as §1

NCI-H1915 = system: NCI-H1915
In short: as §1

NCI-H1792 = system: NCI-H1792
In short: as §1

NCI-H2126 = system: NCI-H2126
In short: as §1

SK-LU-1 = system: SK-LU-1
In short: as §1

HCC-15 = system: HCC-15
In short: as §1

NCI-H1755 = system: NCI-H1755
In short: as §1

For `C[C@@H]1CN(CC(=O)Nc2ccc3c(c2)Cc2cccc(-c4cc(=O)cc(N5CCOCC5)o4)c2S3)C[C@H](C)O1` + C[C@@H](Oc1cc(-c2cnn(C3CCNCC3)c2)cnc1N)c1c(Cl)ccc(F)c1Cl [Crizotinib] (partner 1 µM), which relative viability (HCC-78; first compound 0.04 µM) is on record?
Its relative viability is 0.344.

And the relative viability (HCC-78; first compound 0.1265 µM)?
The relative viability was 0.349.

And the relative viability (HCC-78; first compound 0.4 µM)?
The relative viability was 0.308.

What about the relative viability (HCC-78; first compound 4 µM) of the same compound?
The relative viability was 0.348.

And the relative viability (NCI-H2228; first compound 0.04 µM)?
The relative viability was 0.568.

And the relative viability (NCI-H2228; first compound 0.1265 µM)?
The relative viability was 0.394.

What about the relative viability (NCI-H2228; first compound 0.4 µM) of the same compound?
Its relative viability is 0.283.

What about the relative viability (NCI-H2228; first compound 4 µM) of the same compound?
Its relative viability is 0.341.

And the relative viability (NCI-H460; first compound 0.04 µM)?
Its relative viability is 0.973.

And the relative viability (NCI-H460; first compound 0.1265 µM)?
The relative viability was 0.924.

What about the relative viability (NCI-H460; first compound 0.4 µM) of the same compound?
The relative viability was 0.971.

What about the relative viability (NCI-H460; first compound 4 µM) of the same compound?
The relative viability was 0.662.

And the relative viability (NCI-H358; first compound 0.04 µM)?
Its relative viability is 0.456.

And the relative viability (NCI-H358; first compound 0.1265 µM)?
The relative viability was 0.465.

And the relative viability (NCI-H358; first compound 0.4 µM)?
Its relative viability is 0.718.

And the relative viability (NCI-H358; first compound 4 µM)?
Its relative viability is 0.365.

And the relative viability (RERF-LC-KJ; first compound 0.04 µM)?
The relative viability was 0.861.

What about the relative viability (RERF-LC-KJ; first compound 0.1265 µM) of the same compound?
The relative viability was 0.779.

And the relative viability (RERF-LC-KJ; first compound 0.4 µM)?
Its relative viability is 0.909.

And the relative viability (RERF-LC-KJ; first compound 4 µM)?
The relative viability was 0.722.

What about the relative viability (NCI-H2347; first compound 0.04 µM) of the same compound?
Its relative viability is 0.784.

And the relative viability (NCI-H2347; first compound 0.1265 µM)?
The relative viability was 0.754.

And the relative viability (NCI-H2347; first compound 0.4 µM)?
Its relative viability is 0.735.

And the relative viability (NCI-H2347; first compound 4 µM)?
Its relative viability is 0.578.

And the relative viability (NCI-H1734; first compound 0.04 µM)?
The relative viability was 0.762.

What about the relative viability (NCI-H1734; first compound 0.1265 µM) of the same compound?
The relative viability was 0.651.

What about the relative viability (NCI-H1734; first compound 0.4 µM) of the same compound?
The relative viability was 0.627.

What about the relative viability (NCI-H1734; first compound 4 µM) of the same compound?
The relative viability was 0.663.

And the relative viability (PC-3 [JPC-3]; first compound 0.04 µM)?
The relative viability was 0.947.

What about the relative viability (PC-3 [JPC-3]; first compound 0.1265 µM) of the same compound?
Its relative viability is 0.936.

What about the relative viability (PC-3 [JPC-3]; first compound 0.4 µM) of the same compound?
Its relative viability is 0.971.

And the relative viability (PC-3 [JPC-3]; first compound 4 µM)?
The relative viability was 0.962.

And the relative viability (LXF-289; first compound 0.04 µM)?
The relative viability was 0.777.

What about the relative viability (LXF-289; first compound 0.1265 µM) of the same compound?
The relative viability was 0.877.

What about the relative viability (LXF-289; first compound 0.4 µM) of the same compound?
Its relative viability is 0.814.

What about the relative viability (LXF-289; first compound 4 µM) of the same compound?
Its relative viability is 0.799.

And the relative viability (HOP-62; first compound 0.04 µM)?
Its relative viability is 0.876.

What about the relative viability (HOP-62; first compound 0.1265 µM) of the same compound?
Its relative viability is 1.

And the relative viability (HOP-62; first compound 0.4 µM)?
The relative viability was 0.884.

What about the relative viability (HOP-62; first compound 4 µM) of the same compound?
The relative viability was 0.941.

And the relative viability (NCI-H647; first compound 0.04 µM)?
The relative viability was 1.04.

What about the relative viability (NCI-H647; first compound 0.1265 µM) of the same compound?
The relative viability was 1.09.

And the relative viability (NCI-H647; first compound 0.4 µM)?
The relative viability was 1.09.

And the relative viability (NCI-H647; first compound 4 µM)?
Its relative viability is 0.592.

What about the relative viability (A-427; first compound 0.04 µM) of the same compound?
The relative viability was 1.04.

What about the relative viability (A-427; first compound 0.1265 µM) of the same compound?
Its relative viability is 0.941.

What about the relative viability (A-427; first compound 0.4 µM) of the same compound?
Its relative viability is 0.827.

What about the relative viability (A-427; first compound 4 µM) of the same compound?
Its relative viability is 0.844.

What about the relative viability (SW 1573; first compound 0.04 µM) of the same compound?
The relative viability was 0.904.

And the relative viability (SW 1573; first compound 0.1265 µM)?
The relative viability was 0.918.

What about the relative viability (SW 1573; first compound 0.4 µM) of the same compound?
Its relative viability is 0.744.

And the relative viability (SW 1573; first compound 4 µM)?
The relative viability was 0.746.

And the relative viability (LOU-NH91; first compound 0.04 µM)?
Its relative viability is 0.764.

And the relative viability (LOU-NH91; first compound 0.1265 µM)?
The relative viability was 0.752.

And the relative viability (LOU-NH91; first compound 0.4 µM)?
Its relative viability is 0.948.

What about the relative viability (LOU-NH91; first compound 4 µM) of the same compound?
The relative viability was 0.72.

What about the relative viability (LC-2-ad; first compound 0.04 µM) of the same compound?
The relative viability was 0.386.

And the relative viability (LC-2-ad; first compound 0.1265 µM)?
The relative viability was 0.455.

And the relative viability (LC-2-ad; first compound 0.4 µM)?
The relative viability was 0.434.

And the relative viability (LC-2-ad; first compound 4 µM)?
Its relative viability is 0.43.

And the relative viability (NCI-H1975; first compound 0.04 µM)?
Its relative viability is 0.947.

And the relative viability (NCI-H1975; first compound 0.1265 µM)?
Its relative viability is 0.905.

What about the relative viability (NCI-H1975; first compound 0.4 µM) of the same compound?
The relative viability was 0.937.

And the relative viability (NCI-H1975; first compound 4 µM)?
The relative viability was 0.781.

And the relative viability (NCI-H1915; first compound 0.04 µM)?
The relative viability was 0.9.

And the relative viability (NCI-H1915; first compound 0.1265 µM)?
The relative viability was 0.886.

And the relative viability (NCI-H1915; first compound 0.4 µM)?
Its relative viability is 0.95.

What about the relative viability (NCI-H1915; first compound 4 µM) of the same compound?
The relative viability was 0.853.

And the relative viability (NCI-H1792; first compound 0.04 µM)?
Its relative viability is 0.966.

What about the relative viability (NCI-H1792; first compound 0.1265 µM) of the same compound?
The relative viability was 0.921.

And the relative viability (NCI-H1792; first compound 0.4 µM)?
Its relative viability is 0.959.

What about the relative viability (NCI-H1792; first compound 4 µM) of the same compound?
Its relative viability is 0.932.

What about the relative viability (NCI-H2126; first compound 0.04 µM) of the same compound?
The relative viability was 1.05.

What about the relative viability (NCI-H2126; first compound 0.1265 µM) of the same compound?
The relative viability was 1.02.

What about the relative viability (NCI-H2126; first compound 0.4 µM) of the same compound?
The relative viability was 1.05.

What about the relative viability (NCI-H2126; first compound 4 µM) of the same compound?
Its relative viability is 1.02.

What about the relative viability (SK-LU-1; first compound 0.04 µM) of the same compound?
The relative viability was 1.08.

And the relative viability (SK-LU-1; first compound 0.1265 µM)?
The relative viability was 0.905.

And the relative viability (SK-LU-1; first compound 0.4 µM)?
Its relative viability is 0.902.

What about the relative viability (SK-LU-1; first compound 4 µM) of the same compound?
The relative viability was 0.605.

And the relative viability (HCC-15; first compound 0.04 µM)?
Its relative viability is 0.8.

What about the relative viability (HCC-15; first compound 0.1265 µM) of the same compound?
The relative viability was 0.75.

What about the relative viability (HCC-15; first compound 0.4 µM) of the same compound?
Its relative viability is 0.831.

And the relative viability (HCC-15; first compound 4 µM)?
Its relative viability is 0.734.

And the relative viability (NCI-H1755; first compound 0.04 µM)?
Its relative viability is 0.92.

And the relative viability (NCI-H1755; first compound 0.1265 µM)?
The relative viability was 0.86.

What about the relative viability (NCI-H1755; first compound 0.4 µM) of the same compound?
Its relative viability is 0.816.

And the relative viability (NCI-H1755; first compound 4 µM)?
Its relative viability is 0.792.
